Laboratory results published in publication PMC7939386 (The Journal of Biological Chemistry, 2021).

Legend:
KIF1A-406 [1] = target: T1, KIF1A-406 (Rattus norvegicus, UniProt F1M4A4); test: stopped-flow nucleotide-triggered half-site release of mADP, Michaelis-Menten fit; assay type: biochemical; conditions: one-head-bound complex with 3 μM Taxol-stabilized microtubules, mADP in tethered head; BRB80 (80 mM PIPES, 1 mM MgCl2, pH 6.9), 25 °C; fit ± 95% CI; read-out: Experimental
T1 construct: motor head and neck linker, residues 1-368, followed by 61 residues of Drosophila melanogaster KHC neck coil (printed 'residues 445-405', probably 345-405) for dimerization; C-terminal His6; E. coli-type bacterial expression; homodimer
T1 sequence (F1M4A4 1-368): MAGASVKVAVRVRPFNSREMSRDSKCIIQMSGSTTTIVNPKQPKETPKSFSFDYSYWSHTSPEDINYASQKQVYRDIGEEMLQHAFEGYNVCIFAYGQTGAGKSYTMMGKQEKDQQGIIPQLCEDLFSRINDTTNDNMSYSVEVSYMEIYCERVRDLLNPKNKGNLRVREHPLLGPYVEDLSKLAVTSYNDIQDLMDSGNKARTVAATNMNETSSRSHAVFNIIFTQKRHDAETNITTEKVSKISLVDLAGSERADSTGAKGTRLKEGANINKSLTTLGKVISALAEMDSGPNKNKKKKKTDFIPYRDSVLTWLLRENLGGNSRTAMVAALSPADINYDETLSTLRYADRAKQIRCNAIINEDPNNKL

KIF1A-560-GFP = target: T2, KIF1A-560-GFP (Rattus norvegicus, UniProt F1M4A4); test: single-molecule TIRF microtubule off-rate versus [ADP], hyperbolic fit; assay type: binding; conditions: motor bound to Taxol-stabilized microtubules; BRB80 (80 mM PIPES, pH 6.9), 25 °C; fit ± 95% CI; authors equate K0.5 with KD
T2 construct: motor head and neck linker, residues 1-368, followed by Drosophila melanogaster KHC neck coil and coil-1 (216 residues by b8; b50 says additional 216 residues), C-terminal GFP and His6; bacterial expression; homodimer
T2 sequence (F1M4A4 1-368): T1 sequence (F1M4A4 1-368)

KIF1A-406 [2] = target: T1, KIF1A-406; test: stopped-flow dissociation, ADP-bound motor flushed against […] mADP; assay type: binding; conditions: no microtubules; BRB80, pH 6.9, 25 °C; b26 prints the error as ± 0.005

Structure (SMILES) | Km (KIF1A-406 [1]) | Kd (KIF1A-560-GFP) | mADP dissociation rate constant (KIF1A-406 [2])
Nc1ncnc2c1ncn2[C@@H]1O[C@H](COP(=O)(O)OP(=O)(O)OP(=O)(O)O)[C@@H](O)[C@H]1O [ATP] | 119 ± 21 µM |  | 
Nc1ncnc2c1ncn2[C@@H]1O[C@H](COP(=O)(O)OP(=O)(O)O)[C@@H](O)[C@H]1O [ADP] |  | 93 ± 204 µM | 0.26 ± 0.001 s⁻¹
